Data on two compounds can be found in patent US12342819B2, “Elasnin, a bacteriostatic agent that has potent antibiofilm activities against both mono- and multi-species biofilm” (The Hong Kong University of Science and Technology, priority 2019, dated 2025).

Structures are written as SMILES. In brackets after ≈: the same amount, converted by molar mass. Several values for one entry are separate records, joined by “and”; a condition that tells them apart may be missing. Identical values can stand only once. Some results are limits rather than exact numbers.

The MBC is the smallest concentration meeting the test's criterion for killing. One may read the MIC as the least concentration at which growth counts as inhibited. Read a low MIC as greater potency.

Experiment [1] deals with MRSA ATCC 43300. The experiment in a line: Concentration response curve study (CFU counting of planktonic cells). To be noted: 24 hours; vancomycin 0 to 50 μg/ml, elasnin 0 to 100 μg/ml. The class given is cell-based, Methicillin-resistant Staphylococcus aureus. Here is the method:
MRSA ATCC 43300 was used for concentration response curve study. 4×10^5 CFU/ml of exponentially growing MRSA was inoculated into MHB with various concentrations of elasnin and vancomycin in 15 ml falcon tubes. The tubes were incubated at 37° C. on a rotary shaker for 24 hours; 1 ml of culture broth in each tube was diluted with MHB and 1 ml diluted bacteria was plated on MHA plates for the CFU counting. Each concentration was plated on two plates and the experiments were repeated 3-times.

Experiment [2] has as its system MRSA ATCC 43300. The experiment is described as follows: MBEC assay (eradication of pre-formed biofilm, MTT). The class given is cell-based, Methicillin-resistant Staphylococcus aureus. Particulars: concentration eradicating 50% of mature biofilm within 24 hours. On the procedure:
(§1) Minimum biofilm inhibitory concentrations (MBICs) and minimum biofilm eradication concentrations (MBECs) were determined as previously described (30, 31).
(§2) The ability of Elasnin to eradicate pre-formed mature biofilm was tested through a MBEC assay. Similar to MBIC assay, an overnight culture of testing strains was incubated for 24 hours in 96-well cell culture plates but without adding Elasnin to form biofilm. Formed biofilm was then rinsed twice by 1×PBS and challenged with a series concentration of Elasnin (diluted with LB and 0.5% glucose) and incubated for another 24 hours at 37° C. After incubation, each well was rinsed twice by 1×PBS and MTT assay was conducted to measure viable cells in remaining biofilm.

Experiment [3] relates to MRSA ATCC 43300. The experiment in a line: Minimum bactericidal concentration (MBC). The class given is cell-based, Methicillin-resistant Staphylococcus aureus. Here is the method:
(§3) Minimum inhibitory concentrations (MICs) and minimum bactericidal concentrations (MBCs) were determined with MRSA ATCC 43300 and E. coli ATCC 25922, according to the Clinical and Laboratory Standards Institute guideline CLSI M100 (2018). Approximately 10^5 CFU/ml overnight culture of the bacteria strains were inoculated into MHB and treated with series concentrations of Elasnin (or crude extracts and antibiotics). […] MBCs were measured following the MIC assay by plating 1 ml suitable diluted culture broth from each well on Mueller Hinton Agar (MHA) plate. The MBCs were defined as lowest concentration at which antimicrobial agent caused >99.9% reduction of cells. Each assay was done in duplicates and repeated 3 times.

The test system of experiment [4] is MRSA ATCC 43300. The experiment is described as follows: Minimum inhibitory concentration (MIC), CLSI M100. Type of experiment: cell-based, Methicillin-resistant Staphylococcus aureus. To be noted: Staphylococcus aureus, 24 h. On the procedure: as §3
The next experiment relates to trypsin. To be noted: cited from earlier work.
For experiment [5], the system named is Bacillus subtilis 168. The experiment is described as follows: MBIC assay. Type of experiment: cell-based. Here is the method: as §1
(§4) An overnight culture of the testing strains was diluted into approximately 10^7 with LB and 0.5% glucose and treated with various concentrations of Elasnin in 96-well cell culture plates. Culture broth was then incubated at 37° C. for 24 hours and rinsed twice by 1×PBS to remove non-adhering and planktonic cells. After the wash, MTT staining assay was conducted to measure viable cells in the biofilm since the MTT can react with activated succinate dehydrogenase in viable cell mitochondria to form blue violet formazan, which can be read at 570 nm after being dissolved in DMSO.

Experiment [6] relates to S. aureus ATCC 25923. The experiment in a line: MBIC assay. The class given is cell-based. To be noted: S. aureus ATCC 25923, 90% reduction of biofilm formation. Here is the method:
as §1, §4

For experiment [7], the system named is P. aeruginosa PAO1. The experiment in a line: MBIC assay. Particulars: even at 100 μg/ml. The class given is cell-based. On the procedure: as §1, §4
Experiment [8] has as its system E. coli ATCC 25922. The experiment in a line: MBIC assay. Type of experiment: cell-based. To be noted: even at 100 μg/ml. Here is the method: as §1, §4
Experiment [9] relates to S. aureus B04. The experiment is described as follows: MBIC assay. Type of experiment: cell-based. To be noted: S. aureus B04, 90% reduction of biofilm formation. Here is the method: as §1, §4
Experiment [10] has as its system MRSA ATCC 43300. The experiment is described as follows: MBIC assay (biofilm inhibition, MTT). Type of experiment: cell-based, Methicillin-resistant Staphylococcus aureus. To be noted: minimum concentration inhibiting 90% biofilm formation. Here is the method:
as §1, §4

The next experiment deals with pancreatic elastase. Particulars: cited from earlier work.
A further experiment deals with chymotrypsin. To be noted: cited from earlier work.
In experiment [11] the target is T1, human granulocyte elastase (Homo sapiens, UniProt P08246).
T1 sequence (P08246 30-267): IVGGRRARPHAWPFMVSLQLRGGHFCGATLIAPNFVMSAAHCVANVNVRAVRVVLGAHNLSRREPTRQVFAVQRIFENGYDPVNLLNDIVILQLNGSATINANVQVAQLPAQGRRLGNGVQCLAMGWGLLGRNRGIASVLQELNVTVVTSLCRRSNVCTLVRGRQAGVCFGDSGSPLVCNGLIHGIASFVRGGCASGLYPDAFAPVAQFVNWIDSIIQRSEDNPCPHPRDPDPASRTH
To be noted: cited from earlier work.

Another experiment has as its system MRSA biofilms. The experiment in a line: CLSM observation with biofilm cell and matrix staining. The class given is cell-based, Methicillin-resistant Staphylococcus aureus. Particulars: elasnin 4 μg/mL. On the procedure:
Biofilms were grown on glass cover slides as described for the MBIC and MBEC assays. Treated biofilms were then rinsed twice with 1×PBS and stained with FilmTracer™ FM® 1-43 green biofilm cell stain and FilmTracer™ SYPRO® Ruby Biofilm Matrix Stain at room temperature for 30 min in the dark. Leica Sp8 Confocal Microscope was employed to observe cells and matrix in the biofilm at 488 nm.

Experiment [12] deals with Bacillus subtilis 168. The experiment is described as follows: MBEC assay. Type of experiment: cell-based. To be noted: 50% eradication of mature biofilm. On the procedure:
as §1, §2

Experiment [13] has as its system S. aureus ATCC 25923. The experiment is described as follows: MBEC assay. The class given is cell-based. To be noted: S. aureus ATCC 25923, 50% eradication of mature biofilm. On the procedure: as §1, §2
Experiment [14] deals with P. aeruginosa PAO1. The experiment is described as follows: MBEC assay. Particulars: viability of biofilm cells constant as concentration increased. The class given is cell-based. Here is the method:
as §1, §2

The test system of experiment [15] is E. coli ATCC 25922. The experiment in a line: MBEC assay. Type of experiment: cell-based. Particulars: viability of biofilm cells constant as concentration increased. On the procedure: as §1, §2
For experiment [16], the system named is S. aureus B04. The experiment in a line: MBEC assay. Type of experiment: cell-based. Particulars: S. aureus B04, 50% eradication of mature biofilm. Here is the method:
as §1, §2

Where [17] appears, read: biofilm eradication assay, pre-formed biofilm, 18 hr.
Setting [18] is: biofilm inhibition assay, 24 hr, vs untreated.

For the compound `CN[C@H](CC(C)C)C(=O)N[C@H]1C(=O)N[C@@H](CC(N)=O)C(=O)N[C@H]2C(=O)N[C@H]3C(=O)N[C@H](C(=O)N[C@H](C(=O)O)c4cc(O)cc(O)c4-c4cc3ccc4O)[C@H](O)c3ccc(c(Cl)c3)Oc3cc2cc(c3O[C@@H]2O[C@H](CO)[C@@H](O)[C@H](O)[C@H]2O[C@H]2C[C@](C)(N)[C@H](O)[C@H](C)O2)Oc2ccc(cc2Cl)[C@H]1O` [vancomycin, reference compound], the “cell density versus concentration (concentration-response curve)” value in the experiment on MRSA ATCC 43300 [1] is “sharp decrease in cell density as the concentration increased”. Further, the MBEC entry in the experiment on MRSA ATCC 43300 [2] was “More than 10 μg/ml”. In addition, the MBC in the experiment on MRSA ATCC 43300 [3] (Staphylococcus aureus) was 20 to 50 µg/mL (≈ 13.8 to 34.5 µM). Also, the minimal inhibitory concentration (MIC) with MRSA ATCC 43300 [4] was in the range of 0.5 to 2 µg/mL (≈ 0.345 to 1.38 µM).
For the compound `CCCCCC(=O)C(CCCC)c1oc(=O)c(CCCC)c(O)c1CCCC` (stereo not drawn) [elasnin], the “cell density versus concentration (concentration-response curve)” value in the experiment on MRSA ATCC 43300 [1] is on record as “cell densities did not significantly differ”. In the experiment on trypsin, the activity against trypsin result is recorded as “almost no activities”. The MBIC was 2.5 to 5 µg/mL in the experiment on Bacillus subtilis 168 [5] (Bacillus subtilis 168, 90% reduction of biofilm formation); 1.25 to 2.5 µg/mL in the experiment on S. aureus ATCC 25923 [6]; 1.25 to 2.5 µg/mL in the experiment with S. aureus B04 [9]; 1.25 to 2.5 µg/mL with MRSA ATCC 43300 [10]. Moreover, in the experiment with Bacillus subtilis 168 [5] (Bacillus subtilis 168, elasnin 1.25 μg/ml), the biofilms inhibited entry was “at least 80%”. Besides, the “development of biofilm formation” value with P. aeruginosa PAO1 [7] and in the experiment with E. coli ATCC 25922 [8] was “not influenced” each time. Moreover, the MBEC in the experiment on MRSA ATCC 43300 [2] is 1.25 µg/mL and 1.25 to 2.5 µg/mL; in the experiment on Bacillus subtilis 168 [12], 1.25 to 2.5 µg/mL; with S. aureus ATCC 25923 [13], 0.625 to 1.25 µg/mL; with S. aureus B04 [16] it was 2.5 to 5 µg/mL. The “activity against pancreatic elastase” value with pancreatic elastase is “almost no activities”. Also, in the experiment on chymotrypsin, the activity against chymotrypsin entry was “almost no activities”. In addition, the “inhibition of human granulocyte elastase” value in experiment [11] is recorded as “inhibits”. Further, the reduction in cells result with MRSA biofilms (setting [17]) is on record as “over 50%”. In addition, the reduction in matrices in the experiment on MRSA biofilms (setting [17]) was > 70%. Further, the “decrease in density of cells” value with MRSA biofilms (setting [18]) is listed as “around 80%”. The “decrease in density of matrices” value in the experiment on MRSA biofilms (setting [18]) is listed as ~35%. The “activity in MBEC assay” value in the experiment with P. aeruginosa PAO1 [14] and in the experiment on E. coli ATCC 25922 [15] was “No activity” throughout. Besides, in the experiment on MRSA ATCC 43300 [3] (>99.9% reduction of cells), the MBC result is “above 100 μg/ml”.
